Earlier results, collected in US20160136091A1, “Orally Disintegrating Tablet” (SANWA KAGAKU KENKYUSHO CO., LTD., priority 2013, published 2016).

Settings: 20+5° C.

| Amount of water required to dissolve 1 g | Compound |
| --- | --- |
| less than 1,000 mL | Cn1c(=O)c2[nH]cnc2n(C)c1=O [theophylline] |
| less than 10 mL | OCCN1C[C@H](O)[C@@H](O)[C@H](O)[C@H]1CO [miglitol] |
